pIC50: −log10 of the molar value. Counter-ions that a name gives are not always drawn.
Tests used:
[1] = test system: IL-17 production of mouse spleen cells stimulated by rm-IL-23; test: Production of IL-17 induced when mouse spleen cells were stimulated by recombinant mouse interleukin-23 (rm-IL-23); type: cell-based; settings: Mus musculus, 72 h, inhibition of IL-17 production, DBA/1J mouse spleen cells, rm-IL-23 1 nmol/L, ELISA
Experimental: Effect on Production of IL-17 Induced when Mouse Spleen Cells were Stimulated by Recombinant Mouse Interleukin-23 (rm-IL-23)
An RPMI1640 (Sigma-Aldrich) was used as a medium, to which penicillin G potassium (50 units/mL; Gibco), streptomycin (50 μg/mL; Gibco) and 2-mercaptoethanol (50 μmol/l; Sigma-Aldrich) were added, and then 10% of fetal calf serum (FCS; Cell Culture Technology) inactivated at 56° C. for 30 minutes was added and used in the Test. The test compound was dissolved in dimethylsulfoxide and diluted with 10% FCS-containing RPMI1640 medium to a desired concentration and used in the test. The spleens were aseptically taken out from 6-7 week-old male DBA/1J mice (Charles River Japan, Inc.) and a single cell suspension of spleen cells was prepared and hemolyzed by hypotonic treatment with a mixture of 0.83% aqueous solution of ammonium chloride and Tris-HCl buffer of pH 7.65 (9:1). A cell suspension prepared by 10% FCS-containing RPMI1640 medium was added to flat-bottomed 96 well microtestplate at 2×10^5 cells/well. Test compounds and rm-IL-23 (R&D systems) were diluted with a medium to 1 to 1,000 nmol/L, and 1 nmol/L of the final concentration respectively, which were added and cultured at 37° C., 5% carbon dioxide and 95% air for 72 hours. After completion of the culture, culture supernatant was sampled and an amount of IL-17 production was determined by ELISA method. After sampling the supernatant, WST-8 (Seikagaku Corporation) was added at 10 μl/well and cultured at 37° C., 5% carbon dioxide and 95% air for 4 hours. Then, absorbance (O.D.: Optical Density) at 450 nm was measured by a microplate reader and the value was adopted as an index of cell survivability. An inhibition rate (%) was calculated according to the following formula on the basis of an average of an amount of IL-17 production and a O.D. values of the well containing a test compound of each concentration.
Based on the dose-response curve obtained by plotting the inhibition rate in the longitudinal axis and concentration in the horizontal axis, the concentration of the compound which inhibits the level to 50% of the value of the control group (IC50; nmol/L) was determined by linear regression analysis. The results was shown in the next Table 1

[2] = biological target: hERG (Homo sapiens, UniProt Q12809); test: Effects on hERG current (whole-cell clamping); settings: human, HEK 293 cells that express hERG, pH 7.4, hERG inhibition rate (%) (1 μM), 1 μM; tail peak current; hERG-expressed HEK 293 cells
hERG, sequence (Q12809 whole entry): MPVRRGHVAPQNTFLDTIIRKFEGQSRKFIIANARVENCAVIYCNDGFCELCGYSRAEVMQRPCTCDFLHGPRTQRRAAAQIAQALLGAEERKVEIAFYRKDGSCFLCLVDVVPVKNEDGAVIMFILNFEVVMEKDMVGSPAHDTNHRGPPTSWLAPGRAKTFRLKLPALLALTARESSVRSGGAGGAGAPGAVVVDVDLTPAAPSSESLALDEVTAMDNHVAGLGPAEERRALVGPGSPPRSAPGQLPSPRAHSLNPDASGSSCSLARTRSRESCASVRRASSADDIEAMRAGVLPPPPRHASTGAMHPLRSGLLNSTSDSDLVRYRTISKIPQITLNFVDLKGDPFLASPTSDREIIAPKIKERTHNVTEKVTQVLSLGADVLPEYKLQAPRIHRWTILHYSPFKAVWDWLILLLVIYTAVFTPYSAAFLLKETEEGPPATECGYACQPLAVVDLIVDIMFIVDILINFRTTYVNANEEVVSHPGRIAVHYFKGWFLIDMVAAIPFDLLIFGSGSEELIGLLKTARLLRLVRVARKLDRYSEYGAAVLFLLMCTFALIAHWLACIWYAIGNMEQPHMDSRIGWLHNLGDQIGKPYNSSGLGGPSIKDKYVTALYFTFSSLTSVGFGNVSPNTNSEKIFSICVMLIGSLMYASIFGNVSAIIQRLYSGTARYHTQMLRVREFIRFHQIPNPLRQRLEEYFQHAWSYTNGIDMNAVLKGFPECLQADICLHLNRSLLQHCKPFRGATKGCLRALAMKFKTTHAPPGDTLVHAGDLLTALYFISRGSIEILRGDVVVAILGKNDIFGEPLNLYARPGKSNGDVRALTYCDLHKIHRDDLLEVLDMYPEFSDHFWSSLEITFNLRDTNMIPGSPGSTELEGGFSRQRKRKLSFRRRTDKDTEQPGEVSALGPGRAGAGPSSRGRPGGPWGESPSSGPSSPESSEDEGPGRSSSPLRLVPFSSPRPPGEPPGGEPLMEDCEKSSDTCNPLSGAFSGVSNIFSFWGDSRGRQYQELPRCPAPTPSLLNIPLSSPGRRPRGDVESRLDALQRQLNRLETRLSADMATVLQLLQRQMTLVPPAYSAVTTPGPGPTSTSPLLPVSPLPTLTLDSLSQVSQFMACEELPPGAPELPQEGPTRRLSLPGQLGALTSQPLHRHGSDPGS
Experimental: Dimethylsulfoxide was used as a vehicle and hERG-expressed HEK 293 cells (Cytomyx) were used as test cells. Test cells were once cultured and subdivided and were stored under frozen condition in liquid nitrogen. In the study, thawed and subcultured cells having less than 30 of the passage number were used. Test cells were cultured in a carbon dioxide incubator BNP-110M (Tabai Espec Corp.) at 37±1° C., and 5.0±0.5% of carbon dioxide concentration. The component of culture medium was MEM (Minimum Essential Medium) supplemented with 10 vol % fetal bovine serum (non-activated), 1 mmol/L sodium pyruvate, 0.1 mmol/L non-essential amino acid, 100 U/mL penicillin with 100 μg/mL streptomycin. To select gene-expressing cells, 400 μg/mL G418 Sulphate (Invitrogen) was added to the culture medium. In the dishes for the measurement, the medium which not contain G418 Sulphate (Invitrogen) was used.
As to seeding of cells for measurement, subcultured cells which became confluent were treated with 0.25% trypsin-solution containing 1 mmol/L EDTA (Invitrogen) to remove from the plate, and seeded on sterilized collagen-coated cover glass (Iwaki, AGC Techno Glass Co., LTD). The medium was exchanged appropriately, including the day of measurement.
A perfusion method was applied to the experiment. Test cells were perfused (perfusion speed: approximately 4 mL/min) with an external solution containing specified concentrations of test compounds (component of external solution: 137 mmol/L of sodium chloride, 4 mmol/L of potassium chloride, 10 mmol/L of HEPES, 1.8 mmol/L of calcium chloride, 1 mmol/L of magnesium chloride and 10 mmol/L of glucose; adjusted to pH 7.4±0.1 with sodium hydroxide aqueous solution). […] When effects were observed, the perfusion was continued until the maximum response was observed. […] The data were obtained from one experiment or more and the cells which were incubated in a carbon dioxide incubator after seeding and attached to cover slips were used for the measurement.
A whole-cell clamping method was applied to the measurement. Test cells were perfused (perfusion speed: approximately 4 mL/min) with an external solution (component of external solution: 137 mmol/L of sodium chloride, 4 mmol/L of potassium chloride, 10 mmol/L of HEPES, 1.8 mmol/L of calcium chloride, 1 mmol/L of magnesium chloride and 10 mmol/L of glucose; adjusted to pH 7.4±0.1 with sodium hydroxide aqueous solution). A glass electrode with a resistance of 2 to 6 MΩ, filled with an internal solution (component: 130 mmol/L of potassium chloride, 1 mmol/L of magnesium chloride, 5 mmol/L of EGTA, 10 mmol/L of HEPES and 5 mmol/L of ATP adjusted to pH 7.2±0.1 with sodium hydroxide aqueous solution) was used. After rupturing cell membrane with glass electrode, the cell membrane voltage was held at −80 mV via a patch clamp software (pCLAMP9 [Axon CNS], Molecular Devices) using patch clamp amplifier (EPC8, HEKA). […] Test cells and the cell-attached cover glass were changed every treatment. Temperature of the fluid in a perfusion fluid tank was 24±2° C.
The obtained current was recorded on a computer via a patch clamp amplifier using patch clamp software. An evaluation item was a tail peak current.
A tail peak current was analyzed using analyzing software (Clampfit 9 [Axon CNS], MolecularDevices). Each 2 pulses of before and after perfusion of test compound for each concentration was analyzed, and a peak values of the tail current on the pulses were determined. The inhibition ratio was determined according to the following equation:

Structure (SMILES) | pIC50 [1] | inhibition at 1 µM [2] [%]
COc1cc(C(F)(F)F)cnc1-n1ncc(C(=O)Nc2cnc(C3CCC4(CC3)OCCO4)c(C)c2)c1C [Example D197] | 6.91 | 0.8
Cc1cc(NC(=O)c2nn(C)c3ccccc23)cnc1C1=CCC(N(C)C(=O)C(C)(C)C)CC1 (stereo not drawn) [Example D217] | 7.07 | 26.7
Cc1cc(NC(=O)c2cnn(-c3ccc(F)cc3)c2C)cnc1C1=CCC(N(C)C(=O)C(C)C)CC1 (stereo not drawn) [Example D219, 1-(4-Fluorophenyl)-N-{6-[4-(N-isobutyryl-N-methylamino)cyclohex-1-en-1-yl]-5-methylpyridin-3-yl}-5-methyl-1H-pyrazole-4-carboxamide] | 7.23 | 11.4
Cc1cc(NC(=O)c2cnn(-c3ccc(C(F)(F)F)cn3)c2C)cnc1C1=CCC(NC(=O)C(C)(C)C)CC1 (stereo not drawn) [Example D224] | 6.85 | 19.5
Cc1cc(NC(=O)c2cnn(-c3ccc(C(F)(F)F)cn3)c2C)cnc1C1=CCC(N(C)C(=O)OC(C)(C)C)CC1 (stereo not drawn) [Example D249, N-methyl-{4-[3-methyl-5-({5-methyl-1-[5-(trifluoromethyl)pyridin-2-yl]-1H-pyrazole-4-carbonyl}-amino)pyridin-2-yl]cyclohex-3-en-1-yl}carbamoic acid carbamic acid tert-butyl ester] | 6.88 | 36.9
Cc1c(C(=O)Nc2ccc([C@]3(C#N)CC[C@@](C)(O)CC3)nc2)cnn1-c1ccc(C(F)(F)F)cn1 [Example D254] | 6.84 | 6.6
Cc1cc(NC(=O)c2cnn(-c3ccc(C(F)(F)F)cn3)c2C)cnc1C1=CCC(C(=O)NC(C)(C)C)CC1 (stereo not drawn) [Example D268] | 6.81 | 9.8
Cc1cc(NC(=O)c2cnn(-c3ccc(C4CC4)cn3)c2C)cnc1C1=CCC(C(=O)NC(C)(C)C)CC1 (stereo not drawn) [Example D269] | 6.68 | 14.1
CC[C@]1(O)CC[C@](C#N)(c2ccc(NC(=O)c3cnn(-c4ccc(C(F)(F)F)cn4)c3C)cn2)CC1 [Example D276] | 7.15 | 8.9
Cc1ccc(-n2ncc(C(=O)Nc3ccc([C@]4(C#N)CC[C@]5(CCCO5)CC4)nc3)c2C)cc1 [Example D279] | 6.95 | 12.8
Cc1c(C(=O)Nc2cnc(C3=CCC(N4CCOCC4)CC3)c(F)c2)cnn1-c1ccc(C(F)(F)F)cn1 (stereo not drawn) [Example D282] | 6.76 | 11.9
Cc1c(C(=O)Nc2ccc([C@]3(C#N)CC[C@@H](N(C)C(=O)C(C)C)CC3)nc2)cnn1-c1ccc(C(F)(F)F)cn1 [Example D289, N-{6-[r-1-Cyano-c-4-(N-isobutyryl-N-methylamino)cyclohexan-1-yl]pyridin-3-yl}-5-methyl-1-[5-(trifluoromethyl)pyridin-2-yl]-1H-pyrazole-4-carboxamide] | 7.06 | 11.6
Cc1nc(-n2ncc(C(=O)Nc3ccc([C@]4(C#N)CC[C@@H](N5CCOCC5)CC4)nc3)c2C)ccc1C(F)(F)F [Example D299] | 6.95 | 40.6
CC(C)c1c(C(=O)Nc2ccc([C@]3(C#N)CC[C@@H](N4CCOCC4)CC3)nc2)cnn1-c1ccc(C(F)(F)F)cn1 [Example D300, N-{6-[r-1-Cyano-c-4-(morpholin-4-yl)cyclohexyl]pyridin-3-yl}-5-isopropyl-1-[5-(trifluoromethyl)pyridin-2-yl]-1H-pyrazole-4-carboxamide] | 6.74 | 26.1
Cc1c(C(=O)Nc2ccc(C3=CCC(N4CCOCC4)CC3)nc2)cnn1-c1ccc(C(F)(F)F)cn1 (stereo not drawn) [Example E1, 5-Methyl-N-{6-[4-(morpholin-4-yl)cyclohex-1-en-1-yl]pyridin-3-yl}-1-[5-(trifluoromethyl)-pyridin-2-yl]-1H-pyrazole-4-carboxamide mesylate] | 7.21 | 34.7
Cc1c(C(=O)Nc2ccc([C@]3(O)CC[C@@H](N4CCOCC4)CC3)nc2)cnn1-c1ccc(C(F)(F)F)cn1 [Example E2, N-{6-[r-1-Hydroxy-c-4-(morpholin-4-yl)cyclohexyl]pyridin-3-yl}-5-methyl-1-[5-(trifluoromethyl)pyridin-2-yl]-1H-pyrazole-4-carboxamide] | 6.75 | 24.4

Second part, led by results:

pIC50 [1] | Structure (SMILES) | inhibition at 1 µM [2] [%]
7.23 | Cc1cc(NC(=O)c2cnn(-c3ccc(C4CC4)cn3)c2C)cnc1C1=CCN(C2CCOC2C)CC1 (stereo not drawn) [Example D191] | 47.6
7.26 | Cc1cc(NC(=O)c2cnn(-c3ncc(C(F)(F)F)cc3F)c2C)cnc1C1CCC2(CC1)OCCO2 [Example D196, N-[6-(1,4-Dioxaspiro[4.5]dec-8-yl)-5-methylpyridin-3-yl]-1-[3-fluoro-5-(trifluoromethyl)pyridin-2-yl]-5-methyl-1H-pyrazole-4-carboxamide] | 13.6
7.23 | Cc1cc(NC(=O)c2cnn(-c3ccc(C(C)C)cn3)c2C)cnc1C1=CCC(N2CCOCC2)CC1 (stereo not drawn) [Example D200] | 47.6
7.73 | Cc1cc(NC(=O)c2cnn(-c3ccccc3)c2C)cnc1C1=CCC(N(C)C(=O)C(C)(C)C)CC1 (stereo not drawn) [Example D214] | 10
7.50 | Cc1cc(NC(=O)c2cnn(-c3ccc(C(F)(F)F)cn3)c2C)cnc1C1=CCC(C(=O)N(C)C)CC1 (stereo not drawn) [Example D221, N-[6-(4-N,N-Dimethylcarbamoylcyclohex-1-en-1-yl)-5-methylpyridin-3-yl]-5-methyl-1-[5-(trifluoromethyl)pyridin-2-yl]-1H-pyrazole-4-carboxamide] | 20.1
7.25 | Cc1cc(NC(=O)c2cnn(-c3ccc(C(F)(F)F)cn3)c2C)cnc1C1=CCC2(CC1)OCCO2 [Example D234] | 5.6
7.30 | Cc1c(C(=O)Nc2ccc(C3CCC4(CC3)OCCO4)nc2)cnn1-c1ccc(C(F)(F)F)cn1 [Example D237] | 3.6
7.31 | Cc1cc(NC(=O)c2cnn(-c3ccc(C(F)(F)F)cn3)c2C)cnc1C1CCC2(CC1)OCCO2 [Example D238] | 5
8.40 | Cc1cc(NC(=O)c2cnn(-c3ccc(F)cc3)c2C)cnc1C1=CCC(N(C)C(=O)C(C)(C)C)CC1 (stereo not drawn) [Example D260] | 16.8
7.76 | Cc1ccc(-n2ncc(C(=O)Nc3cnc(C4=CCC(N(C)C(=O)C(C)(C)C)CC4)c(C)c3)c2C)nc1 (stereo not drawn) [Example D264] | 7.5
8.31 | Cc1cc(NC(=O)c2cnn(-c3ccc(C(F)(F)F)cn3)c2C)cnc1C1=CCC(N(C)C(=O)C(F)(F)F)CC1 (stereo not drawn) [Example D265, 5-Methyl-N-(5-methyl-6-{4-[N-methyl-N-(2,2,2-trifluoroacetyl)amino]cyclohex-1-en-1-yl}pyridin-3-yl)-1-[5-(trifluoromethyl)pyridin-2-yl]-1H-pyrazole-4-carboxamide] | 35.9
7.25 | Cc1c(C(=O)Nc2ccc([C@]3(C#N)CC[C@]4(C=CCO4)CC3)nc2)cnn1-c1ccc(C(F)(F)F)cn1 [Example D270] | 0.5
7.26 | CC[C@]1(O)CC[C@](C#N)(c2ccc(NC(=O)c3cnn(-c4ccc(Cl)cc4)c3C)cn2)CC1 [Example D275] | 14.4
7.30 | Cc1c(C(=O)Nc2ccc([C@]3(C#N)CC[C@]4(CCCO4)CC3)nc2)cnn1-c1ccc(C(F)(F)F)cn1 [Example D278, N-[6-(c-8-Cyano-r-1-oxaspiro[4.5]decan-8-yl)pyridin-3-yl]-5-methyl-1-[5-(trifluoromethyl)-pyridin-2-yl]-1H-pyrazole-4-carboxamide] | 13.6
8.27 | Cc1c(C(=O)Nc2ccc([C@]3(C#N)CC[C@@H](N(C)C(=O)C(C)(C)C)CC3)nc2)cnn1-c1ccc(C(F)(F)F)cn1 [Example D288, N-(6-{r-1-Cyano-c-4-[N-(2,2-dimethylpropanoyl)-N-methylamino]cyclohexan-1-yl}pyridin-3-yl)-5-methyl-1-[5-(trifluoromethyl)pyridin-2-yl]-1H-pyrazole-4-carboxamide] | 5.9
7.55 | Cc1c(C(=O)Nc2ccc(C3(C#N)CCC4(CC3)OCCO4)nc2)cnn1-c1ccc(C(F)(F)F)cc1 [Example E6] | 36.9
7.30 | N#CC1(c2ccc(NC(=O)c3ccc(-c4ccc(Cl)cc4)o3)cn2)CCC2(CC1)OCCO2 [Example E18] | 8.8

— patent US9150555B2, “Amide derivative and use thereof” (Mitsubishi Tanabe Pharma Corporation, priority 2010, dated 2015)
